Patent US8802597B2, “Herbicidal pyrimidines” (E I du Pont de Nemours and Company, priority 2003, dated 2014)

Tests used:
Assay in all cases: Test E flooded paddy water application
Format in all cases: in vivo
[1] = system: smallflower umbrella sedge (Cyperus difformis); conditions: Flood, 21 days, scale 0 to 100 (0 no effect, 100 complete control); for Plant response rating, Sedge, Umbrella: 16 g ai/ha
Method in brief: (§1)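 Weeds sown in sterilized Tama silt loam (2.6% organic matter), greenhouse 29.5/26.7° C, 16-h photoperiod; at 2.0–2.5-leaf stage pots flooded to 3 cm and compound added to paddy water. Visual rating vs untreated controls after 21 days, 0 (no effect) to 100 (complete control).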

[2] = system: bearded (brdd.) sprangletop (Leptochloa fusca ssp. fascicularis); conditions: Flood, 21 days, scale 0 to 100 (0 no effect, 100 complete control)
Method in brief: as §1

[3] = system: late watergrass (Echinochloa oryzicola); conditions: Flood, 21 days, scale 0 to 100 (0 no effect, 100 complete control); for Plant response rating, Watergrass, Late: 16 g ai/ha
Method in brief: as §1

[4] = system: water seeded rice seedlings (Oryza sativa cv. ‘Japonica-M202’); conditions: Flood, 21 days, scale 0 to 100 (0 no effect, 100 complete control); for Plant response rating, Rice, Water Seeded: 16 g ai/ha
Method in brief: as §1

[5] = system: purple redstem (Ammannia coccinea); conditions: Flood, 21 days, scale 0 to 100 (0 no effect, 100 complete control); for Plant response rating, Redstem: 16 g ai/ha
Method in brief: as §1

[6] = system: transplanted rice seedlings (Oryza sativa cv. ‘Japonica-M202’); conditions: Flood, 21 days, scale 0 to 100 (0 no effect, 100 complete control); for Plant response rating, Rice, Transplanted: 16 g ai/ha
Method in brief: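 Greenhouse pots of Tama silt loam with weeds and rice at 2.0–2.5-leaf stage, flooded to 3 cm; compounds applied directly into paddy water, depth maintained. Visual rating versus untreated controls after 21 days, 0 (no effect) to 100 (complete control); 29.5/26.7 °C, 16-h photoperiod.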

[7] = system: early watergrass (Echinochloa oryzoides); conditions: Flood, 21 days, scale 0 to 100 (0 no effect, 100 complete control)
Method in brief: as §1

[8] = system: ducksalad (Heteranthera limosa); conditions: Flood, 21 days, scale 0 to 100 (0 no effect, 100 complete control); for Plant response rating, Ducksalad: 16 g ai/ha
Method in brief: as §1

[9] = system: junglerice (Echinochloa colona); conditions: Flood, 21 days, scale 0 to 100 (0 no effect, 100 complete control); for Plant response rating, Junglerice: 16 g ai/ha
Method in brief: as §1

[10] = system: barnyardgrass (Echinochloa crus-galli); conditions: Flood, 21 days, scale 0 to 100 (0 no effect, 100 complete control); for Plant response rating, Barnyardgrass: 16 g ai/ha
Method in brief: as §1

[11] = system: rice flatsedge (Cyperus iria); conditions: Flood, 21 days, scale 0 to 100 (0 no effect, 100 complete control)
Method in brief: as §1

Cc1ccc(-c2nc(N)c(Cl)c(C(=O)O)n2)cc1 [Compound 91]
50: Redstem plant response rating ([5]; 250 g ai/ha)
20: Rice, Water Seeded plant response rating ([4]; 250 g ai/ha)
10: Rice, Water Seeded plant response rating ([4]; 64 g ai/ha) | Rice, Water Seeded plant response rating ([4]; 125 g ai/ha) | Rice, Transplanted plant response rating ([6]; 250 g ai/ha) | Barnyardgrass plant response rating ([10]; 64 g ai/ha) | Barnyardgrass plant response rating ([10]; 125 g ai/ha) | Barnyardgrass plant response rating ([10]; 250 g ai/ha)
0: Sedge, Umbrella plant response rating ([1]; 32 g ai/ha) | Plant response rating, Sedge, Umbrella [1] | Sprangletop, Brdd. plant response rating ([2]; 32 g ai/ha) | Sprangletop, Brdd. plant response rating ([2]; 64 g ai/ha) | Watergrass, Late plant response rating ([3]; 32 g ai/ha) | Watergrass, Late plant response rating ([3]; 64 g ai/ha) | Watergrass, Late plant response rating ([3]; 125 g ai/ha) | Watergrass, Late plant response rating ([3]; 250 g ai/ha) | Plant response rating, Watergrass, Late [3] | Rice, Water Seeded plant response rating ([4]; 32 g ai/ha) | Plant response rating, Rice, Water Seeded [4] | Redstem plant response rating ([5]; 32 g ai/ha) | Redstem plant response rating ([5]; 64 g ai/ha) | Plant response rating, Redstem [5] | Rice, Transplanted plant response rating ([6]; 32 g ai/ha) | Rice, Transplanted plant response rating ([6]; 64 g ai/ha) | Rice, Transplanted plant response rating ([6]; 125 g ai/ha) | Plant response rating, Rice, Transplanted [6] | Watergrass, Early plant response rating ([7]; 32 g ai/ha) | Watergrass, Early plant response rating ([7]; 64 g ai/ha) | Watergrass, Early plant response rating ([7]; 125 g ai/ha) | Watergrass, Early plant response rating ([7]; 250 g ai/ha) | Plant response rating, Watergrass, Early ([7]; 16 g ai/ha) | Junglerice plant response rating ([9]; 32 g ai/ha) | Junglerice plant response rating ([9]; 64 g ai/ha) | Junglerice plant response rating ([9]; 125 g ai/ha) | Plant response rating, Junglerice [9] | Barnyardgrass plant response rating ([10]; 32 g ai/ha) | Plant response rating, Barnyardgrass [10]
70: Junglerice plant response rating ([9]; 250 g ai/ha)
30: Sedge, Umbrella plant response rating ([1]; 64 g ai/ha) | Sprangletop, Brdd. plant response rating ([2]; 125 g ai/ha) | Sprangletop, Brdd. plant response rating ([2]; 250 g ai/ha) | Redstem plant response rating ([5]; 125 g ai/ha)
100: Sedge, Umbrella plant response rating ([1]; 125 g ai/ha) | Sedge, Umbrella plant response rating ([1]; 250 g ai/ha) | Ducksalad plant response rating ([8]; 32 g ai/ha) | Ducksalad plant response rating ([8]; 64 g ai/ha) | Ducksalad plant response rating ([8]; 125 g ai/ha) | Ducksalad plant response rating ([8]; 250 g ai/ha) | Plant response rating, Ducksalad [8]

COC(=O)c1nc(-c2ccc(C(F)(F)F)cc2)nc(N)c1Cl [Compound 44]
30: Sprangletop, Brdd. plant response rating ([2]; 64 g ai/ha) | Sprangletop, Brdd. plant response rating ([2]; 125 g ai/ha)
90: Sedge, Umbrella plant response rating ([1]; 64 g ai/ha) | Sedge, Umbrella plant response rating ([1]; 125 g ai/ha)
20: Sedge, Umbrella plant response rating ([1]; 32 g ai/ha) | Sprangletop, Brdd. plant response rating ([2]; 32 g ai/ha) | Watergrass, Late plant response rating ([3]; 500 g ai/ha) | Rice, Water Seeded plant response rating ([4]; 500 g ai/ha) | Redstem plant response rating ([5]; 125 g ai/ha) | Junglerice plant response rating ([9]; 250 g ai/ha) | Junglerice plant response rating ([9]; 500 g ai/ha)
95: Sprangletop, Brdd. plant response rating ([2]; 500 g ai/ha)
75: Redstem plant response rating ([5]; 500 g ai/ha)
100: Sedge, Umbrella plant response rating ([1]; 250 g ai/ha) | Sedge, Umbrella plant response rating ([1]; 500 g ai/ha) | Ducksalad plant response rating ([8]; 32 g ai/ha) | Ducksalad plant response rating ([8]; 64 g ai/ha) | Ducksalad plant response rating ([8]; 125 g ai/ha) | Ducksalad plant response rating ([8]; 250 g ai/ha) | Ducksalad plant response rating ([8]; 500 g ai/ha)
0: Watergrass, Late plant response rating ([3]; 32 g ai/ha) | Watergrass, Late plant response rating ([3]; 64 g ai/ha) | Watergrass, Late plant response rating ([3]; 125 g ai/ha) | Watergrass, Late plant response rating ([3]; 250 g ai/ha) | Rice, Water Seeded plant response rating ([4]; 32 g ai/ha) | Rice, Water Seeded plant response rating ([4]; 64 g ai/ha) | Rice, Water Seeded plant response rating ([4]; 125 g ai/ha) | Rice, Water Seeded plant response rating ([4]; 250 g ai/ha) | Redstem plant response rating ([5]; 32 g ai/ha) | Rice, Transplanted plant response rating ([6]; 32 g ai/ha) | Rice, Transplanted plant response rating ([6]; 64 g ai/ha) | Rice, Transplanted plant response rating ([6]; 125 g ai/ha) | Rice, Transplanted plant response rating ([6]; 250 g ai/ha) | Rice, Transplanted plant response rating ([6]; 500 g ai/ha) | Watergrass, Early plant response rating ([7]; 32 g ai/ha) | Watergrass, Early plant response rating ([7]; 64 g ai/ha) | Watergrass, Early plant response rating ([7]; 125 g ai/ha) | Watergrass, Early plant response rating ([7]; 250 g ai/ha) | Watergrass, Early plant response rating ([7]; 500 g ai/ha) | Junglerice plant response rating ([9]; 32 g ai/ha) | Junglerice plant response rating ([9]; 64 g ai/ha) | Junglerice plant response rating ([9]; 125 g ai/ha) | Barnyardgrass plant response rating ([10]; 32 g ai/ha) | Barnyardgrass plant response rating ([10]; 64 g ai/ha) | Barnyardgrass plant response rating ([10]; 125 g ai/ha) | Barnyardgrass plant response rating ([10]; 250 g ai/ha)
50: Sprangletop, Brdd. plant response rating ([2]; 250 g ai/ha) | Redstem plant response rating ([5]; 250 g ai/ha)
10: Redstem plant response rating ([5]; 64 g ai/ha) | Barnyardgrass plant response rating ([10]; 500 g ai/ha)

CCOC(=O)c1nc(-c2ccc(Cl)cc2)nc(N)c1Br [Compound 37]
0: Sprangletop, Brdd. plant response rating ([2]; 32 g ai/ha) | Sprangletop, Brdd. plant response rating ([2]; 64 g ai/ha) | Sprangletop, Brdd. plant response rating ([2]; 125 g ai/ha) | Sprangletop, Brdd. plant response rating ([2]; 250 g ai/ha) | Plant response rating, Sprangletop, Brdd. ([2]; 16 g ai/ha) | Watergrass, Late plant response rating ([3]; 32 g ai/ha) | Watergrass, Late plant response rating ([3]; 64 g ai/ha) | Watergrass, Late plant response rating ([3]; 125 g ai/ha) | Watergrass, Late plant response rating ([3]; 250 g ai/ha) | Plant response rating, Watergrass, Late [3] | Rice, Water Seeded plant response rating ([4]; 32 g ai/ha) | Rice, Water Seeded plant response rating ([4]; 64 g ai/ha) | Rice, Water Seeded plant response rating ([4]; 125 g ai/ha) | Rice, Water Seeded plant response rating ([4]; 250 g ai/ha) | Plant response rating, Rice, Water Seeded [4] | Redstem plant response rating ([5]; 32 g ai/ha) | Plant response rating, Redstem [5] | Rice, Transplanted plant response rating ([6]; 32 g ai/ha) | Rice, Transplanted plant response rating ([6]; 64 g ai/ha) | Rice, Transplanted plant response rating ([6]; 125 g ai/ha) | Rice, Transplanted plant response rating ([6]; 250 g ai/ha) | Plant response rating, Rice, Transplanted [6] | Flatsedge, Rice plant response rating ([11]; 32 g ai/ha) | Flatsedge, Rice plant response rating ([11]; 64 g ai/ha) | Plant response rating, Flatsedge, Rice ([11]; 16 g ai/ha) | Junglerice plant response rating ([9]; 32 g ai/ha) | Junglerice plant response rating ([9]; 64 g ai/ha) | Junglerice plant response rating ([9]; 125 g ai/ha) | Junglerice plant response rating ([9]; 250 g ai/ha) | Plant response rating, Junglerice [9] | Barnyardgrass plant response rating ([10]; 64 g ai/ha) | Barnyardgrass plant response rating ([10]; 125 g ai/ha) | Barnyardgrass plant response rating ([10]; 250 g ai/ha) | Plant response rating, Barnyardgrass [10]
65: Sedge, Umbrella plant response rating ([1]; 125 g ai/ha)
90: Flatsedge, Rice plant response rating ([11]; 250 g ai/ha)
30: Plant response rating, Sedge, Umbrella [1] | Redstem plant response rating ([5]; 64 g ai/ha)
95: Sedge, Umbrella plant response rating ([1]; 250 g ai/ha)
80: Redstem plant response rating ([5]; 250 g ai/ha) | Plant response rating, Ducksalad [8]
50: Sedge, Umbrella plant response rating ([1]; 32 g ai/ha) | Sedge, Umbrella plant response rating ([1]; 64 g ai/ha)
100: Ducksalad plant response rating ([8]; 32 g ai/ha) | Ducksalad plant response rating ([8]; 64 g ai/ha) | Ducksalad plant response rating ([8]; 125 g ai/ha) | Ducksalad plant response rating ([8]; 250 g ai/ha)
40: Redstem plant response rating ([5]; 125 g ai/ha)
75: Flatsedge, Rice plant response rating ([11]; 125 g ai/ha)
